Earlier results, collected in US20210060038A1, “COMPOSITIONS FOR ELIMINATING BACTERIAL PROMOTORS OF COLORECTAL CANCER BY INTRALUMINAL APPLICATION” (priority 2018, published 2021).
Like-named read-outs stand apart in the source and are kept apart here.

How the values were obtained:
IPEC-J2 cells = IPEC-J2 cells exposed at 580 μg/mL, within 15 minutes
[1] = not given; remark: listed apart in the source
[2] = in vivo
[3] = sealed sachets at room temperature
[4] = tested on: mouse macrophage cell line
[5] = tested on: resistant bacterial strains; conditions: overall, controlled clinical trials, oral or intravenous
[6] = tested on: polymorphonuclear leukocytes
[7] = not given; remark: listed apart in the source
[8] = tested on: strains of organisms from the susceptible genera
[9] = tested on: anaerobic genus Fusobacterium
[10] = tested on: anaerobic Bacteroides fragilis group of bacteria
[11] = tested on: anaerobic genera Peptostreptococcus (including Peptoniphilus, Finegoldia and Anaerococcus)
[12] = tested on: Staphylococcus, Streptococcus, Enterococcus, Neisseria, Escherichia, Proteus (indole-negative), Serratia, Salmonella, Shigella, Pseudomonas, Haemophilus, and …
[13] = tested on: indole-positive Proteus spp., Klebsiella and Enterobacter spp.
Pseudomonas aeruginosa = conditions: maximum
human macrophages = conditions: extracellular concentrations 0.125 to 1 μg/mL
[14] = tested on: human polymorphonuclear leukocytes; conditions: rapid passive diffusion

**Q.** Which intracellular concentration (IPEC-J2 cells) does the source give for `C[C@@H]1O[C@@H]1P(=O)(O)O` [Fosfomycin calcium monohydrate] here?
**A.** ~30 µg/mL

**Q.** And the “pH of 0.4% solution” value (0.4% solution)?
**A.** 8.1-9.6

**Q.** What about the solubility in water ([1]; calcium monohydrate) of the same compound?
**A.** sparingly soluble in water

**Q.** Which “pH of 5% solution” value does the source give for `C[C@@H]1O[C@@H]1P(=O)(O)O` [Fosfomycin disodium] here?
**A.** 9.0-10.5

**Q.** And the solubility in water [1]?
**A.** highly soluble in water

**Q.** What about the “bioavailability” value [2] of the same compound?
**A.** high bioavailability

**Q.** Which “pH of 5% solution” value does the source give for `C[C@@H]1O[C@@H]1P(=O)(O)O.NC(CO)(CO)CO` [Fosfomycin trometamol] here?
**A.** 3.5-5.5

**Q.** And the solubility in water [1]?
**A.** highly soluble in water

**Q.** What about the stability of granulate [3] of the same compound?
**A.** long-term stability

**Q.** With `C[C@@H](O)[C@H]1C(=O)N2C(C(=O)O)=C(S[C@@H]3CN[C@H](C(=O)Nc4cccc(C(=O)O)c4)C3)[C@H](C)[C@H]12` [ertapenem] as the compound, how does the “extracellular concentration giving bactericidal intracellular concentrations” value [4] read?
**A.** ≥ 15 µg/mL

**Q.** Which results are given for `C[C@@H]1O[C@@H]1P(=O)(O)O` [fosfomycin, [(2R,3S)-3-methyloxiran-2-yl]phosphonic acid]?
**A.** appearance of resistant bacterial strains [5]: 3.0%; concentration in polymorphonuclear leukocytes relative to extracellular fluid [6]: up to twice those of the extracellular fluid; eosinophilia ([7]; in vivo): 0.2%; transient rashes (allergy) ([7]; in vivo): 0.3 % of cases; transiently raised liver enzymes ([7]; systemically administered): 0.3 % of cases; synergistic effect, share of tested strains ([8]; early studies, various antibiotic combinations): 70-100%; synergy rates ([8]; subsequent more extensive studies): 36-74%; activity against Fusobacterium [9]: active; activity against Bacteroides fragilis group [10]: inactive; activity against Peptostreptococcus [11]: active; activity against aerobic genera [12]: active; activity against indole-positive Proteus spp., Klebsiella and Enterobacter spp. [13]: less active; appearance of resistant bacterial strains (Pseudomonas aeruginosa): 15%

**Q.** With `C[C@@H](O)[C@H]1C(=O)N2C(C(=O)O)=C(S[C@@H]3CN[C@H](C(=O)N(C)C)C3)[C@H](C)[C@H]12` [meropenem] as the compound, how does the “cellular to extracellular concentration ratio” value (human macrophages) read?
**A.** 3-12

**Q.** For `Cc1ncc([N+](=O)[O-])n1CCO` [metronidazole], which “time for intracellular levels to approach equilibrium with extracellular levels” value [14] is on record?
**A.** ≤ 15 min

**Q.** What about the “activity against Fusobacterium” value [9] of the same compound?
**A.** active

**Q.** And the “activity against Bacteroides fragilis group” value [10]?
**A.** active
